Data published in US20100003679A1, “ASSESSMENT OF CELLULAR COMPOSITION AND FRACTIONAL VIABILITY AND USES THEREOF” (University of Miami, priority 2006, published 2010).

How the values were obtained:
Format in all cases: cell-based
[1] = system: β-cells (NG bright) of human islets; assay: Simultaneous β-cell/PDC viability by FACS after noxious stimuli: β-cell subset; details: human islet cells, 24 h; SNAP 0.5 mM; H2O2 200 μM; IL-1β 50 U/ml + TNF-α 1,000 U/ml + IFN-γ 1,000 U/ml; vs absence of stimulus
Experimental: (§1) Assessment of PDC-specific viability: Single cell suspensions were incubated for 30 min at 37° C. in phosphate buffered saline (PBS) without Ca^2+ and Mg^2+ with Newport Green PDX acetoxymethylether (NG; […]) and tetramethylrhodamineethylester (TMRE; 100 ng/ml; both from Molecular Probes). Cells were incubated with anti-CA19-9 antibody (1:100) for 15 min followed by goat anti-mouse antibody (Alexa-647). After washing, cells were stained with 7-aminoactinomycin D (7-AAD; Molecular Probes), a marker of cell death. Cell suspensions were analyzed (minimum 3.0 104 events) using a FACScan cytometer with the CellQuest-pro software (Becton Dickinson, Mountain View, Calif.). We have evaluated apoptosis selectively in the NG^bright and CA19-9+ cells according to the scheme in FIGS. 19A-E. After counting, dead cells (7-AAD+) were excluded from further analysis, live β-cells (NG^bright) and PDC (CA19-9^+) were analyzed for mitochondrial membrane potential (TMRE), which allows discriminating between healthy (TMRE^+) and apoptotic (TMRE^−) cells. […]

[2] = system: PDC (CA19-9+ ductal cells) of human islet preparations; assay: Simultaneous β-cell/PDC viability by FACS after noxious stimuli: ductal cell subset; details: 24 h, SNAP 0.5 mM, H2O2 200 μM, IL-1β 50 U/ml + TNF-α 1,000 U/ml + IFN-γ 1,000 U/ml, vs absence of stimulus
Experimental: as §1

[3] = system: β-cells (NG bright) of human islets; assay: β-cell apoptosis after delivery of noxious stimuli (TMRE staining in NG bright subset, FACS); details: SNP 0.5 mM 18 h, H2O2 200 μM 18 h, IL-1β 50 U/ml alone or with TNF-α 1000 U/ml and IFN-γ 1000 U/ml 24 h, vs absence of stimulus
Experimental: Determination of fractional β-cell viability. For assessment of apoptosis, single cell suspensions were incubated with 1 μM Newport Green PDX acetoxymethylether (NG; Molecular Probes) and 100 ng/ml of tetramethylrhodamine ethyl ester (TMRE; Molecular Probes) for 30 min at 37° C. in PBS without Ca^2+ and Mg^2+. Newport Green allows for the definition of cell subsets according to zinc content (18). TMRE selectively binds to mitochondrial membranes, allowing for detection of apoptosis (that results in decreased staining) (19-20). After washing, cells were stained with 7-aminoactinomycin D (7-AAD; Molecular Probes), which binds to DNA when cell membrane permeability is altered after cell death. Cell suspensions were analyzed (minimum 3.0×10^4 events) using a FACScan cytometer (Becton Dickinson, Mountain View, Calif.) with the CellQuest software.
Delivery of pro-apoptotic stimuli to islet cells: Islets were treated with selected compounds to induce apoptosis. The nitric oxide (NO) donor sodium nitroprusside (Baxter Healthcare Corporation, Deerfield, Ill.) was used at 0.5 mM for 18 hours. Hydrogen peroxide (H2O2; Sigma) was used at 200 μM for 18 hours. IL-1-β (50 U/ml) alone or in combination with TNF-α (1000 U/ml) and IFN-γ (1000 U/ml) was used for 24 hours. […]

## CC(=O)NC(C(=O)O)C(C)(C)SN=O (racemic) [SNAP, S-Nitroso-N-acetyl-DL-penicillamine]
[1]
  apoptosis by TMRE staining in β-cell subset: increased apoptosis
[2]
  apoptosis by TMRE staining in ductal cell (PDC) subset: increased apoptosis

## OO [H2O2, Hydrogen peroxide]
[3]
  percentage of apoptotic β-cells (TMRE−, NG bright): increase in the percentage of apoptotic β-cells
[1]
  apoptosis by TMRE staining in β-cell subset: increased apoptosis
[2]
  apoptosis by TMRE staining in ductal cell (PDC) subset: increased apoptosis

## IL-1β: cytokine used as pro-apoptotic stimulus on islets
[3]
  percentage of apoptotic β-cells (TMRE−, NG bright): increase in the percentage of apoptotic β-cells
